The test system of one assay is LNCaP (PSMA+). Format: cell-based. As to conditions: for IC50: LNCaP (PSMA+); for S (selectivity): IC50 PC3 (PSMA−) / IC50 LNCaP (PSMA+); for TI for LNCaP: IC50 of free toxin / IC50 of conjugate. The text has this:
(§1) Note: A direct comparison of all DUPA conjugates with amanitin was not performed in one experiment. The amanitin curve shown in the graph is derived from the direct comparison between HDP 30.2284 and amanitin.

In another assay the test system is PC3 (PSMA−). Format: cell-based.
Source text: as §1

The target in another assay is RNA-polymerase II (Homo sapiens, UniProt P24928). As to conditions: complex between amanitin and RNA-polymerase II; cited from earlier work.

Structures are written as SMILES.

`CC[C@H](C)[C@@H]1NC(=O)CNC(=O)[C@@H]2Cc3c([nH]c4cc(O)ccc34)[S+]([O-])C[C@@H](NC(=O)CNC1=O)C(=O)N[C@@H](CC(N)=O)C(=O)N1C[C@H](O)C[C@H]1C(=O)N[C@@H]([C@@H](C)[C@@H](O)CO)C(=O)N2` (stereo in doubt) [α-amanitin, reference compound]: the results for the IC50 in the assay with LNCaP (PSMA+) and with PC3 (PSMA−) were 479 nM and 213 nM, respectively. The Kd (commonly the free concentration of one partner at which half of the binding sites on the other are occupied at equilibrium, for simple one-to-one binding) at RNA-polymerase II is 3 nM.

For `CC[C@H](C)[C@@H]1NC(=O)CNC(=O)[C@H]2Cc3c([nH]c4cc(OCc5ccc(NC(=O)[C@H](C)NC(=O)[C@@H](NC(=O)CCCCCN6C(=O)CC(SC[C@H](NC(=O)[C@H](Cc7ccccc7)NC(=O)[C@H](Cc7ccccc7)NC(=O)CCCCCCCNC(=O)CCC(NC(=O)NC(CCC(=O)O)C(=O)O)C(=O)O)C(=O)O)C6=O)C(C)C)cc5)ccc34)[S+]([O-])C[C@H](NC(=O)CNC1=O)C(=O)N[C@@H](CC(N)=O)C(=O)N1C[C@H](O)C[C@H]1C(=O)N[C@@H]([C@@H](C)[C@@H](O)CO)C(=O)N2` (stereo partly drawn) [HDP 30.2284, 6′-O-[6-(3-(((DUPA-Aoc-Phe-Phe-Cys)-sulfanyl)-2,5-dioxopyrrolidin-1-yl)-hexanamido)-Val-Ala-PAB]-α-amantin], in the assay with LNCaP (PSMA+), the “S (selectivity)” value is on record as 1819, the “TI for LNCaP” value worked out at 555 and the IC50 (usually the concentration needed to halve the response being measured) amounted to 0.863 nM. The same compound displayed an IC50 in the assay on PC3 (PSMA−) of 1570 nM.

`CC[C@H](C)[C@@H]1NC(=O)CNC(=O)[C@@H]2Cc3c([nH]c4cc(OCCCCCCN5C(=O)CC(SC[C@H](NC(=O)[C@H](Cc6ccccc6)NC(=O)[C@H](Cc6ccccc6)NC(=O)CCCCCCCNC(=O)CC[C@H](NC(=O)N[C@@H](CCC(=O)O)C(=O)O)C(=O)O)C(=O)O)C5=O)ccc34)[S@+]([O-])C[C@H](NC(=O)CNC1=O)C(=O)N[C@@H](CC(N)=O)C(=O)N1C[C@H](O)C[C@H]1C(=O)N[C@@H]([C@@H](C)[C@@H](O)CO)C(=O)N2` (stereo partly drawn) [HDP 30.2301, 6′-O-[6-(((DUPA-Aoc-Phe-Phe-Cys)-sulfanyl)-2,5-dioxopyrrolidin-1-yl)-hexyl]-α-amantin]: in the assay with LNCaP (PSMA+), the “S (selectivity)” value is on record as 249, the “TI for LNCaP” value was determined as 78 and the IC50 was determined as 6.11 nM. In the assay on PC3 (PSMA−), this compound gave an IC50 of 1520 nM.

Consider `CC[C@H](C)[C@@H]1NC(=O)CNC(=O)[C@@H]2Cc3c([nH]c4cc(OCc5ccc(NC(=O)[C@H](C)NC(=O)[C@@H](NC(=O)CN6C(=O)C(SCCOCCOCCOCCOCCOCCOCCOCCNC(=O)[C@H](Cc7ccccc7)NC(=O)[C@H](Cc7ccccc7)NC(=O)CCCCCCCNC(=O)CC[C@H](NC(=O)N[C@@H](CCC(=O)O)C(=O)O)C(=O)O)=C(SCCOCCOCCOCCOCCOCCOCCOCCNC(=O)[C@H](Cc7ccccc7)NC(=O)[C@H](Cc7ccccc7)NC(=O)CCCCCCCNC(=O)CC[C@H](NC(=O)N[C@@H](CCC(=O)O)C(=O)O)C(=O)O)C6=O)C(C)C)cc5)ccc34)[S@+]([O-])C[C@H](NC(=O)CNC1=O)C(=O)N[C@@H](CC(N)=O)C(=O)N1C[C@H](O)C[C@H]1C(=O)N[C@@H]([C@@H](C)[C@@H](O)CO)C(=O)N2` [HDP 30.2490, 6′-O-[(3,4-(((DUPA-Aoc-Phe-Phe-PEGn)-sulfanyl)-2,5-dioxopyrrolidin-1-yl)-propanamido)-Val-Ala-PAB]-α-amantin], for which, in the assay with LNCaP (PSMA+), the “S (selectivity)” value came out at 52.5 and the “TI for LNCaP” value amounted to 62.

With `CC[C@H](C)[C@@H]1NC(=O)CNC(=O)C2Cc3c([nH]c4cc(OCc5ccc(NC(=O)[C@H](C)NC(=O)[C@@H](NC(=O)CSC[C@@H](NC(=O)[C@H](Cc6ccccc6)NC(=O)[C@H](Cc6ccccc6)NC(=O)CCCCCCCNC(=O)CCC(NC(=O)NC(CCC(=O)O)C(=O)O)C(=O)O)C(=O)O)C(C)C)cc5)ccc34)[S+]([O-])CC(NC(=O)CNC1=O)C(=O)N[C@@H](CC(N)=O)C(=O)N1CC(O)C[C@H]1C(=O)N[C@@H]([C@@H](C)[C@@H](O)CO)C(=O)N2` (stereo partly drawn) [HDP 30.2515, 6′-O-[2-((DUPA-Aoc-Phe-Phe-Cys)-sulfanyl)-acetamido-Val-Ala-PAB]-α-amantin], the IC50 turned out to be 4.51 nM in the assay on LNCaP (PSMA+) and 663 nM in the assay with PC3 (PSMA−).

Consider `CC[C@H](C)[C@@H]1NC(=O)CNC(=O)[C@@H]2Cc3c([nH]c4cc(OCc5ccc(NC(=O)[C@H](C)NC(=O)[C@@H](NC(=O)CCN6C(=O)CC(SC[C@H](NC(=O)[C@H](Cc7ccccc7)NC(=O)[C@H](Cc7ccccc7)NC(=O)CCCCCCCNC(=O)CC[C@H](NC(=O)N[C@@H](CCC(=O)O)C(=O)O)C(=O)O)C(=O)O)C6=O)C(C)C)cc5)ccc34)[S@+]([O-])C[C@H](NC(=O)CNC1=O)C(=O)N[C@@H](CC(N)=O)C(=O)N1C[C@H](O)C[C@H]1C(=O)N[C@@H]([C@@H](C)[C@@H](O)CO)C(=O)N2` (stereo partly drawn) [HDP 30.2535, 6′-O-[3-(3-(((DUPA-Aoc-Phe-Phe-Cys)-sulfanyl)-2,5-dioxopyrrolidin-1-yl)-propanamido)-Val-Ala-PAB]-α-amantin], for which, in the assay on LNCaP (PSMA+), the “S (selectivity)” value is 191 and the “TI for LNCaP” value was 253.

Consider `CC[C@H](C)[C@@H]1NC(=O)CNC(=O)[C@@H]2Cc3c([nH]c4cc(OCc5ccc(NC(=O)[C@H](CCCNC(N)=O)NC(=O)[C@@H](NC(=O)CCCCCN6C(=O)CC(SC[C@H](NC(=O)[C@H](Cc7ccccc7)NC(=O)[C@H](Cc7ccccc7)NC(=O)CCCCCCCNC(=O)CC[C@H](NC(=O)N[C@@H](CCC(=O)O)C(=O)O)C(=O)O)C(=O)O)C6=O)C(C)C)cc5)ccc34)[S@+]([O-])C[C@H](NC(=O)CNC1=O)C(=O)N[C@@H](CC(N)=O)C(=O)N1C[C@H](O)C[C@H]1C(=O)N[C@@H]([C@@H](C)[C@@H](O)CO)C(=O)N2` (stereo partly drawn) [HDP 30.2537, 6′-O-[6-(3-(((DUPA-Aoc-Phe-Phe-Cys)-sulfanyl)-2,5-dioxopyrrolidin-1-yl)-hexanamido)-Val-Cit-PAI3]-α-amantin], for which, in the assay with LNCaP (PSMA+), the “S (selectivity)” value was 148 and the “TI for LNCaP” value was 371.

On to `CC[C@H](C)[C@@H]1NC(=O)CNC(=O)[C@@H]2Cc3c([nH]c4cc(OCCC(C)SSC[C@H](NC(=O)[C@H](Cc5ccccc5)NC(=O)[C@H](Cc5ccccc5)NC(=O)CCCCCCCNC(=O)CC[C@H](NC(=O)N[C@@H](CCC(=O)O)C(=O)O)C(=O)O)C(=O)O)ccc34)[S@+]([O-])C[C@H](NC(=O)CNC1=O)C(=O)N[C@@H](CC(N)=O)C(=O)N1C[C@H](O)C[C@H]1C(=O)N[C@@H]([C@@H](C)[C@@H](O)CO)C(=O)N2` (stereo partly drawn) [HDP 30.2589], for which, in the assay on LNCaP (PSMA+), the “S (selectivity)” value was 22.5 and the “TI for LNCaP” value is listed as 53.

The values above are taken from US11583569B2, “PSMA-targeting amanitin conjugates” (Heidelberg Pharma Research GmbH, priority 2017, dated 2023).
